Assay results reported in patent US20030073654A1, “Stabilized transient gene expression” (Genespan Corporation, priority 1996, published 2003).
“Also recorded” adds a separate entry of the source.

Columns and labels:
[1] = test system: SW480 P3 (ATCC #CCL228) human colon carcinoma cells; assay: Screening assay for enhancement of transient expression (β-galactosidase gene, liposomal transfection, 6-well plates); assay type: cell-based
Description: These parameters are called the “X” factor, the “G” factor, and the “K” factor. [formula]
This factor reflects the extent to which a chemical compound added to a transfected cell enhances stabilizes transient expression for the first four days following transfection. […] For example, if expression is doubled in the presence of a compound, […]. […] X may be calculated similarly when the agent in question is a mixture of more than one chemical compound.
Cumulative protein expression, i.e., the values for “A” and “C”, is measured by summing the values measured daily in aliquots of the cultured cells.
2. G factors. G factors differ from the X factor only with respect to the time period evaluated. For calculating a G factor, the amount of protein expressed is measured from days 4-7 or days 4-14, where day 0 is the day on which the foreign DNA is added to the cells. The subscripts denote which of the two time periods provided the basis for measurement. […] As for the X factor, [formula]
3. K factor. The K factor is the ratio of the rate constants for the change in the foreign DNA expression in control transfected cells and in cells exposed to a chemical compound of the subject invention. K is determined according to the following equation: [formula]
wherein “k(DNA)” is the first order rate constant for the change in concentration of the protein expressed from the transgenic DNA, which is expressing protein as a function of time, i.e., [formula]
Values for k(DNA) are derived by using a computer program that plots the log of the foreign protein concentration against time, using the results of transgenic protein measurements that begin about 24 hours after the foreign DNA has been added to the cell. […] However, the program calculates a “best fit” line for each data set, and determines the slope of that portion of the resulting line that corresponds to the period during which protein production is changing. […] Thus, the slope is calculated during this period of decline to provide values for k(DNA) and K that can be compared for the purpose of comparing the efficacy of different chemical compounds.
SW480 P3 (ATCC #CCL228) human colon carcinoma cells (typically, 1×10^6 cells) were plated in the wells of a 6-well tissue culture plate. The number of wells plated reflected the number of days post-transfection during which the experiment would proceed. Each well contained 1 ml of complete media from a 30 ml stock solution containing: 26.4 ml RPMI tissue culture medium, 4 mM L-glutamine, 3.0 ml fetal bovine serum, and 10 μg/ml gentamicin. Cells were cultured at 37° C. in a CO2 incubator with 10% CO2 for 24 hours after being plated, during which time the cells adhered to the plates.
After the 24 hour pre-incubation step, the transfection step was carried out by removing the RPMI and adding 900 μL OPTI-MEM® (Gibco) medium containing 2 μg of VR1412 DNA (Vical, Inc., San Diego, Calif.), which expresses the bacterial β-galactosidase gene under the control of a cytomegalovirus promoter, and 8 μg of a mixture of cationic lipid (1,2-dimyristyloxyproply-3-dimethyl-hydroxyethyl ammonium bromide (e.g., “DMRIE/DOPE”) mixed in equimolar proportions with dioleoylphosphatidylethanolamine) to yield a lipid:DNA molar ratio of 0.99:1. It should be noted that typical transient transfection protocols employ 10 μg DNA per 10^6 cells, but the protocol described here uses less DNA in order to reduce toxicity to the cells. The plates were then incubated for 4 hours at 37° C.
After the 4 hour incubation step, 100 μl of heat deactivated fetal bovine serum (to stop transfection), plus 12.0 μl of 50 mg/ml gentamicin were added to each well.

SW480 cells = assay: Transient expression in HPBr hollow fiber perfusion bioreactor (2-week β-galactosidase production); assay type: cell-based, human; conditions: relatively high rotational speed
Description: A series of four lipofection-based gene transfection experiments were conductive in a high performance hollow fiber perfusion prototype bioreactor device (hereafter referred to as the […] device) in a Genespan prototype incubator instrument. The device consists essentially of a sterile chamber through which two sets of hollow fibers are passed. Culture medium is continuously circulated through one set of fibers, while gases required (e.g., oxygen and carbon dioxide) for cell growth are passed through the second set of fibers. The fibers are composed of a porous material through which gases and nutrients can pass in one direction, while waste molecules produced by the cells growing within the chamber can pass in the other direction. Cells growing in the device may remain in suspension, or may attach to the outer surfaces of both sets of hollow fibers.
A useful feature of the HPBr device is that the cells can be agitated by rotating the chamber through which the tubes pass. […]
Daily samples (about 1.5 ml) of cells and supernatant were taken from the cell compartment of each bioreactor and an equal volume of fresh media was added to replace it. Cell counts and viabilities were determined, and […] were lysed and retained for β-galactosidase determination using the spectrophotometric method described in Example 1. […]

chondroitin sulfate
effect on transient expression [1]: capable of prolonging transient expression
effect on transient expression when present before or during the transfection step ([1]; polyanionic carbohydrates, liposomal transfection): allowed the transfection to proceed unimpeded; also recorded: enhanced transient expression
cell adhesion to microcarrier (SW480 cells): enabled the anchorage-dependent cells to adhere well to the microcarrier
